Source: PubChem BioAssay (NCI)
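1) Cells in 96-well plates. 2) Compound, 48 h, 5 concentrations. 3) Linear interpolation between surrounding doses. 4) Unreached endpoint = highest concentration. The concentration for 50% growth inhibition is given as GI50. TGI: concentration producing complete growth inhibition.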

Columns and labels:
Test in all cases: growth of human tumour cells (NCI), 48 h
[1] = tested on: UO-31 renal
[2] = tested on: OVCAR-3 ovarian
[3] = tested on: UACC-257 melanoma
[4] = tested on: HCT-15 colon
[5] = tested on: COLO 205 colon
[6] = tested on: HT29 colon
[7] = tested on: SNB-75 CNS
[8] = tested on: A549 NSCLC
[9] = tested on: A498 renal
[10] = tested on: MALME-3M melanoma

With O=S(=O)([O-])c1cccc2cccc(N=Cc3ccccc3[O-])c12.O=S(=O)([O-])c1cccc2cccc(N=Cc3ccccc3[O-])c12.[O]=[U]=[O] the GI50 [1] was 50.7 µM, the TGI [1] was greater than 100 µM and the GI50 [2] was greater than 100 µM. It also gave a TGI [2] greater than 100 µM, a GI50 [3] greater than 100 µM and a TGI [3] greater than 100 µM. The GI50 [4] was 49 µM, the TGI [4] was greater than 100 µM and the GI50 [5] was 64.8 µM. It also gave a TGI [5] greater than 100 µM, a GI50 [6] of 58 µM and a TGI [6] greater than 100 µM. It also gave a GI50 [7] of 23.3 µM, a TGI [7] of 57.9 µM and a GI50 [8] of 44.4 µM. For the same molecule, the TGI [8] was greater than 100 µM, the GI50 [9] was greater than 100 µM and the TGI [9] was greater than 100 µM. It also gave a GI50 [10] greater than 100 µM and a TGI [10] greater than 100 µM.

In the case of CCCC[C@H]1C(=O)O[C@H](C)[C@H](NC(=O)c2cccc(NC=O)c2O)C(=O)O[C@@H](C)[C@@H]1OC(=O)CC(C)C, the TGI [1] is reported as 33.2 µM, the TGI [2] is reported as 24.6 µM and the TGI [3] is reported as 69.6 µM. For the same molecule, the TGI [4] was 22 µM, the TGI [5] was 31.6 µM and the TGI [6] was 27.4 µM. The TGI [7] was 59.9 µM, the TGI [8] was 29.5 µM and the TGI [9] was 30 µM. It also gave a TGI [10] of 50.9 µM.

OCc1cn(Cc2cccc(Cl)c2)c2ccccc12 gave a GI50 [1] of 5.01 µM, a TGI [1] of 41.4 µM and a GI50 [2] of 0.128 µM. For the same molecule, the TGI [2] was 1.1 µM, the GI50 [3] was 0.823 µM and the TGI [3] was 5.61 µM. The GI50 [4] was 5.79 µM, the TGI [4] was 43.8 µM and the GI50 [5] was 0.432 µM. It also gave a TGI [5] of 20.3 µM, a GI50 [6] of 1.83 µM and a TGI [6] of 34.3 µM. It also gave a GI50 [7] of 7.7 µM, a TGI [7] of 29 µM and a GI50 [8] of 15 µM. It also gave a TGI [8] of 65.8 µM, a GI50 [9] of 0.0142 µM and a TGI [9] of 0.0305 µM. It also gave a GI50 [10] of 12.3 µM and a TGI [10] of 30.6 µM.

CSc1nc(NC2OCC(OC(C)=O)C(OC(C)=O)C2OC(C)=O)c2c(OC(C)=O)c(C)c(=O)oc2n1 (configuration not stated) was tested, and the TGI [1] was greater than 100 µM, the TGI [2] was greater than 100 µM and the TGI [3] was greater than 100 µM. The TGI [4] was greater than 100 µM, the TGI [5] was greater than 100 µM and the TGI [6] was greater than 100 µM. For the same molecule, the TGI [7] was greater than 100 µM, the TGI [8] was greater than 100 µM and the TGI [9] was greater than 100 µM. For the same molecule, the TGI [10] was greater than 100 µM.

With C/C(O)=C(\N=O)C(=O)NCCc1ccccc1 the TGI [1] was greater than 100 µM, the TGI [2] was greater than 100 µM and the TGI [3] was greater than 100 µM. For the same molecule, the TGI [4] was greater than 55.9 µM, the TGI [5] was greater than 66.9 µM and the TGI [6] was greater than 100 µM. For the same molecule, the TGI [7] was greater than 100 µM, the TGI [8] was greater than 100 µM and the TGI [9] was greater than 100 µM. The TGI [10] was greater than 100 µM.

With Cc1ccc(C(CN(C)C)C(=O)c2ccccc2)cc1 (configuration not stated) the GI50 [1] was 1.86 µM, the TGI [1] was 3.86 µM and the GI50 [2] was 1.86 µM. For the same molecule, the TGI [2] was 3.55 µM, the GI50 [3] was 5.74 µM and the TGI [3] was 19.2 µM. It also gave a GI50 [4] of 1.7 µM, a TGI [4] of 4.21 µM and a GI50 [5] of 2.2 µM. For the same molecule, the TGI [5] was 4.91 µM, the GI50 [6] was 3.26 µM and the TGI [6] was 12.5 µM. The GI50 [7] was 2.58 µM, the TGI [7] was 14.8 µM and the GI50 [8] was 16.7 µM. The TGI [8] was 38 µM, the GI50 [9] was 13.5 µM and the TGI [9] was 28.6 µM. The GI50 [10] was 2.74 µM and the TGI [10] was 8.89 µM.

CC(=O)Nc1ccc(/C=C/[N+](=O)[O-])cc1 was tested, and the TGI [1] was 4.58 µM, the TGI [2] was 10.7 µM and the TGI [3] was 17 µM. It also gave a TGI [4] greater than 19.6 µM, a TGI [5] of 7.28 µM and a TGI [6] of 3.93 µM. It also gave a TGI [7] of 7.64 µM, a TGI [8] of 17.6 µM and a TGI [9] of 15.2 µM. For the same molecule, the TGI [10] was 17.7 µM.

Molecule Clc1ccc(Cl)c2[s+]snc12 has a TGI [1] greater than 100 µM, a TGI [2] greater than 100 µM and a TGI [3] greater than 100 µM. For the same molecule, the TGI [4] was greater than 65.5 µM, the TGI [5] was greater than 60.1 µM and the TGI [6] was 68.3 µM. The TGI [7] was greater than 100 µM, the TGI [8] was greater than 100 µM and the TGI [9] was greater than 100 µM. It also gave a TGI [10] of 99.5 µM.

For N#CC(C(=O)/C(=N/N)C(C#N)c1ccc(Cl)cc1)c1ccc(Cl)cc1 (configuration not stated), the TGI [1] was greater than 100 µM, the TGI [2] was greater than 100 µM and the TGI [3] was greater than 100 µM. It also gave a TGI [4] greater than 100 µM, a TGI [5] greater than 100 µM and a TGI [6] greater than 100 µM. For the same molecule, the TGI [7] was greater than 100 µM, the TGI [8] was greater than 100 µM and the TGI [9] was greater than 100 µM. For the same molecule, the TGI [10] was greater than 100 µM.

In the case of Cc1ccccc1-c1c(N)nc(NC#N)nc1C(=O)Nc1ccccc1, the TGI [1] is reported as greater than 100 µM, the TGI [2] is reported as greater than 100 µM and the TGI [3] is reported as greater than 100 µM. The TGI [4] was greater than 100 µM, the TGI [5] was greater than 100 µM and the TGI [6] was greater than 100 µM. The TGI [7] was greater than 100 µM, the TGI [8] was greater than 100 µM and the TGI [9] was greater than 100 µM. The TGI [10] was greater than 100 µM.

COC(=O)C1CC(C(=O)OC)c2nc3cc(C)ccc3nc21 (configuration not stated) gave a TGI [1] greater than 100 µM, a TGI [2] greater than 100 µM and a TGI [3] greater than 100 µM. It also gave a TGI [4] greater than 100 µM, a TGI [5] greater than 100 µM and a TGI [6] greater than 100 µM. The TGI [7] was greater than 100 µM, the TGI [8] was greater than 100 µM and the TGI [9] was greater than 100 µM. For the same molecule, the TGI [10] was greater than 100 µM.

Cc1c(N=Nc2ccc([N+](=O)[O-])cc2)nc2scc(-c3ccccc3)n12 was tested, and the TGI [1] was greater than 100 µM, the TGI [2] was greater than 100 µM and the TGI [3] was greater than 100 µM. For the same molecule, the TGI [4] was greater than 92.2 µM, the TGI [5] was greater than 100 µM and the TGI [6] was greater than 100 µM. The TGI [7] was greater than 100 µM, the TGI [8] was greater than 100 µM and the TGI [9] was greater than 100 µM. The TGI [10] was greater than 100 µM.

CCCCn1c2cc(OCc3cn(-c4ccc(Cl)cc4)nn3)ccc2c2ccnc(C)c21 gave a GI50 [1] of 4.32 µM, a TGI [1] of 10 µM and a GI50 [2] of 6.41 µM. The TGI [2] was 18.2 µM, the GI50 [3] was 5.83 µM and the TGI [3] was 11.1 µM. It also gave a GI50 [4] of 6.74 µM, a TGI [4] greater than 33.3 µM and a GI50 [5] of 5.76 µM. The TGI [5] was 14.4 µM, the GI50 [6] was 6.25 µM and the TGI [6] was greater than 33.3 µM. It also gave a GI50 [7] of 5.09 µM, a TGI [7] of 13.1 µM and a GI50 [8] of 8 µM. The TGI [8] was greater than 33.3 µM, the GI50 [9] was 5.08 µM and the TGI [9] was 14.1 µM. For the same molecule, the GI50 [10] was 5.98 µM and the TGI [10] was 14.5 µM.

CN(C)CCCn1c2c(c3cnccc3c1=O)C(=O)c1ccccc1-2 gave a GI50 [1] of 0.183 µM, a TGI [1] of 2.55 µM and a GI50 [2] of 1.1 µM. It also gave a TGI [2] of 5.47 µM, a GI50 [3] of 0.486 µM and a TGI [3] of 3.21 µM. The GI50 [4] was 0.318 µM, the TGI [4] was 10.2 µM and the GI50 [5] was 0.269 µM. For the same molecule, the TGI [5] was 3.66 µM, the GI50 [6] was 0.242 µM and the TGI [6] was 11.3 µM. The GI50 [7] was 0.82 µM, the TGI [7] was 4.03 µM and the GI50 [8] was 0.676 µM. The TGI [8] was 3.86 µM, the GI50 [9] was 1.17 µM and the TGI [9] was 5.95 µM. The GI50 [10] was 0.287 µM and the TGI [10] was 1.05 µM.

With C(=N\Nc1ccccn1)/c1ccccn1 the GI50 [1] was 0.267 µM, the TGI [1] was greater than 34.1 µM and the GI50 [2] was 0.286 µM. For the same molecule, the GI50 [3] was 0.453 µM, the GI50 [4] was 0.368 µM and the TGI [4] was greater than 100 µM. It also gave a GI50 [5] of 0.356 µM, a TGI [5] greater than 100 µM and a GI50 [6] of 0.563 µM. For the same molecule, the TGI [6] was greater than 100 µM, the GI50 [7] was 0.665 µM and the TGI [7] was greater than 93.4 µM. It also gave a GI50 [8] of 0.501 µM, a TGI [8] greater than 100 µM and a GI50 [9] of 0.273 µM. For the same molecule, the GI50 [10] was 0.293 µM and the TGI [10] was 2.69 µM.

Work on Cc1cccc(C(C)(C)C)c1NC(=O)C(=O)C(C(=O)/C=C\c1ccccc1)C1OC(=O)c2ccccc21 (configuration not stated) yielded a TGI [1] greater than 100 µM, a TGI [2] greater than 100 µM and a TGI [3] greater than 100 µM. The TGI [4] was greater than 100 µM, the TGI [5] was greater than 100 µM and the TGI [6] was greater than 100 µM. It also gave a TGI [7] greater than 100 µM, a TGI [8] greater than 100 µM and a TGI [9] greater than 100 µM. It also gave a TGI [10] greater than 100 µM.
